Experimental data as given in patent US8633183B2 (priority 2010, dated 2014).

These molecules were tested against PI3Kalpha (Homo sapiens (Human), UniProt P42336). Conditions: read-out: IC50 PI3K.
Chain of PI3Kalpha (P42336 whole entry, looked up): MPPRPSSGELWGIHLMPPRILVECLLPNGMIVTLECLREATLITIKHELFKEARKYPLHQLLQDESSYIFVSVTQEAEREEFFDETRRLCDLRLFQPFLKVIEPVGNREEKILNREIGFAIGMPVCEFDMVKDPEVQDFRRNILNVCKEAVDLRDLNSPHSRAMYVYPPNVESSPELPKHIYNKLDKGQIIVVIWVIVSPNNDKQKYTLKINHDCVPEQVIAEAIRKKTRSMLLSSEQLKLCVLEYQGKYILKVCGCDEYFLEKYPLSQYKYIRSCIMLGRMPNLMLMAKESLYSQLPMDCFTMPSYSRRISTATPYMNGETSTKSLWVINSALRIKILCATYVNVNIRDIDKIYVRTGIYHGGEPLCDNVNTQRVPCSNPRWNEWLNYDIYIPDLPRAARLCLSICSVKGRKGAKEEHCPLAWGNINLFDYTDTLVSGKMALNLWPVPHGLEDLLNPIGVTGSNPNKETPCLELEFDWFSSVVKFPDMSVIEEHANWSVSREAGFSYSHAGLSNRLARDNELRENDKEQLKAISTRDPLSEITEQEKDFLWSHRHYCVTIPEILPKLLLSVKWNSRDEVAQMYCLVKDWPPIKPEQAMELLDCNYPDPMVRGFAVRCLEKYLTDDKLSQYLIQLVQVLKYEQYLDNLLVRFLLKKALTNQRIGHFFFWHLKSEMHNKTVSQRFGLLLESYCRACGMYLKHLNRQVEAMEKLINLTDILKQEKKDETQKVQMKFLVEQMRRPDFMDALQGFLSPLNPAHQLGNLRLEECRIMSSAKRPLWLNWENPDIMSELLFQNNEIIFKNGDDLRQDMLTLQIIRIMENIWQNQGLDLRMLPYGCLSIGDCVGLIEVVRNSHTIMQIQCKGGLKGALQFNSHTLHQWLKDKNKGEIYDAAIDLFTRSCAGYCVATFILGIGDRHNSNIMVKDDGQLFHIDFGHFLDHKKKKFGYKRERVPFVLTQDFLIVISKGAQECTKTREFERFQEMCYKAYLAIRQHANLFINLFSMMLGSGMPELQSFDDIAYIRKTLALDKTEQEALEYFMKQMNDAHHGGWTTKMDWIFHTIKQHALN
Protocol: Plot the concentration of each compound versus the emission ratio. […] Determination of IC50 values can be obtained by curve fitting (sigmoidal dose response, variable slope) using Prism software from GraphPad).
Method Type: Filter-Binding-Assay
Compounds are serially diluted in assay buffer+6% DMSO and 10 μl of each dilution is added per well of a 96-well plate (compounds are tested in duplicates) and mixed with 30 μl of the lipid vesicles containing PDGFR-Peptide (0.5 μM final) and PI3K alpha (25 ng/well final). The mixture is then incubated for 20 minutes at room temperature. Subsequently, 20 μl of assay buffer containing 3 μM cold ATP and 0.5 μCi/20 μl 33P-ATP are added. The plates are then incubated at room temperature for 120 minutes (shaking with 300 rpm). The reaction mix is transferred onto filter plates using “filtermate harvester” from Packard: filter plates are rinsed with PBS, then the reaction mix is filtered onto the filter plate, washed 5 times with PBS and are allowed to dry for 30-60 minutes at 50° C.
As positive control serve wells containing vehicle controls (1% DMSO in assay buffer), showing non-inhibited kinase activity (high values). Wells containing assay buffer instead of enzyme can serve as control for background activity (low values).
Calculate IC50 values using the Smiley program (based on GrapPad Prism)
With CCc1cc(-c2ncnc(CC)c2C#Cc2ccc(N)nc2)ccn1 [Example C-3] the IC50 was 40 nM.
With CCc1ncnc(-c2cc(C)nc(C)c2)c1C#Cc1ccc(N)nc1 [Example C-4] the IC50 was 29 nM.
With CNC(=O)c1ccc(-c2ncnc(C)c2C#Cc2ccc(N)nc2)cc1Cl [Example C-5] the IC50 was 50 nM.
In the case of Cc1ncnc(-c2ccc(C(=O)N(C)C)cc2)c1C#Cc1ccc(N)nc1 [Example C-6], the IC50 is reported as 86 nM.
For Cc1ncnc(-c2ccccc2)c1C#Cc1ccc(N)nc1 [Example C-7], the IC50 was 39 nM.
For Cc1ncnc(-c2ccc(F)c(C(=O)N(C)C)c2)c1C#Cc1ccc(N)nc1 [Example C-9], the IC50 was 254 nM.
In the case of Cc1ncnc(-c2cccc(C(=O)N(C)C)c2)c1C#Cc1ccc(N)nc1 [Example C-10], the IC50 is reported as 401 nM.
Cc1ncnc(-c2ccc(C(=O)N(C)C)c(F)c2)c1C#Cc1ccc(N)nc1 [Example C-11] showed an IC50 of 47 nM.
With CCc1ncnc(-c2ccc(C(=O)NC)c(Cl)c2)c1C#Cc1ccc(N)nc1 [Example C-12] the IC50 was 71 nM.
Work on CCc1ncnc(-c2ccccc2)c1C#Cc1ccc(N)nc1 [Example C-13] yielded an IC50 of 99 nM.
Work on CCc1ncnc(-c2ccc(S(C)(=O)=O)cc2)c1C#Cc1ccc(N)nc1 [Example C-14] yielded an IC50 of 66 nM.
Molecule CCc1ncnc(-c2ccc(C(=O)N(C)C)c(F)c2)c1C#Cc1ccc(N)nc1 [Example C-15A] has an IC50 of 57 nM.
Molecule CCc1ncnc(-c2ccc(F)c(C(=O)N(C)C)c2)c1C#Cc1ccc(N)nc1 [Example C-15] has an IC50 of 189 nM.
For CCc1ncnc(-c2ccc(C(=O)NC)c(Cl)c2)c1C#Cc1ccc(C)nc1 [Example C-16], the IC50 was 236 nM.
For CCc1ncnc(-c2ccc(S(C)(=O)=O)cc2)c1C#Cc1ccc(C)nc1 [Example C-17], the IC50 was 99 nM.
In the case of CCc1ncnc(-c2ccc(C(=O)N(C)C)cc2)c1C#Cc1ccc(C)nc1 [Example C-18], the IC50 is reported as 137 nM.
Cc1cc(-c2ncnc(C)c2C#Cc2ccc(N)nc2)ccn1 [Example C-20] gave an IC50 of 58 nM.
Work on Cc1ncnc(-c2ccc(C(F)(F)F)nc2)c1C#Cc1ccc(N)nc1 [Example C-21] yielded an IC50 of 99 nM.
For Cc1ncnc(-c2cnc3ccccc3c2)c1C#Cc1ccc(N)nc1 [Example C-22], the IC50 was 30 nM.
COc1ccc(-c2ncnc(C)c2C#Cc2ccc(N)nc2)cn1 [Example C-23] showed an IC50 of 78 nM.
For Cc1ccc(-c2ncnc(C)c2C#Cc2ccc(N)nc2)cn1 [Example C-24], the IC50 was 59 nM.
For Cc1ncnc(-c2ccc(N3CCCCC3)nc2)c1C#Cc1ccc(N)nc1 [Example C-25], the IC50 was 64 nM.
Cc1ncnc(-c2ccc(C3CC3)nc2)c1C#Cc1ccc(N)nc1 [Example C-26] was tested, and the IC50 was 43 nM.
CCc1ncnc(-c2ccnc(C)c2)c1C#Cc1ccc(N)nc1 [Example C-27] was tested, and the IC50 was 57 nM.
CCc1ncnc(-c2ccc(C(F)(F)F)nc2)c1C#Cc1ccc(N)nc1 [Example C-28] was tested, and the IC50 was 58 nM.
With CCc1ncnc(-c2cnc3ccccc3c2)c1C#Cc1ccc(N)nc1 [Example C-29] the IC50 was 24 nM.
CCc1ncnc(-c2ccc(OC)nc2)c1C#Cc1ccc(N)nc1 [Example C-30] was tested, and the IC50 was 40 nM.
Work on CCc1ncnc(-c2ccc(C)nc2)c1C#Cc1ccc(N)nc1 [Example C-31] yielded an IC50 of 30 nM.
Work on CCc1ncnc(-c2ccc(N3CCOCC3)nc2)c1C#Cc1ccc(N)nc1 [Example C-32] yielded an IC50 of 32 nM.
Molecule CCc1ncnc(-c2ccnc(OC)c2)c1C#Cc1ccc(N)nc1 [Example C-33] has an IC50 of 61 nM.
CCc1ncnc(-c2ccc(N(C)C)nc2)c1C#Cc1ccc(N)nc1 [Example C-34] gave an IC50 of 37 nM.
For CCN(CC)C(=O)c1cccc(-c2ncnc(C)c2C#Cc2ccc(N)nc2)c1 [Example C-36], the IC50 was 308 nM.
Work on Cc1ncnc(-c2cccc(C(=O)N3CCOCC3)c2)c1C#Cc1ccc(N)nc1 [Example C-37] yielded an IC50 of 224 nM.
Cc1ncnc(-c2cc(Cl)cc(C(=O)N(C)C)c2)c1C#Cc1ccc(N)nc1 [Example C-38] was tested, and the IC50 was 68 nM.
Cc1ncnc(-c2ccc(F)c(C(=O)N3CCOCC3)c2)c1C#Cc1ccc(N)nc1 [Example C-39] was tested, and the IC50 was 380 nM.
Work on Cc1ncnc(-c2ccc(Cl)c(C(=O)N3CCOCC3)c2)c1C#Cc1ccc(N)nc1 [Example C-40] yielded an IC50 of 459 nM.
With Cc1ncnc(-c2ccc(F)c(C(=O)N3CCCCC3)c2)c1C#Cc1ccc(N)nc1 [Example C-41] the IC50 was 539 nM.
For CNC(=O)c1cc(-c2ncnc(C)c2C#Cc2ccc(N)nc2)ccc1F [Example C-43], the IC50 was 184 nM.
In the case of CCc1ncnc(-c2cccc(C(=O)N(CC)CC)c2)c1C#Cc1ccc(N)nc1 [Example C-44], the IC50 is reported as 188 nM.
CCc1ncnc(-c2ccc(F)c(C(=O)N3CCOCC3)c2)c1C#Cc1ccc(N)nc1 [Example C-46] was tested, and the IC50 was 226 nM.
Molecule CCc1ncnc(-c2ccc(Cl)c(C(=O)N(CC)CC)c2)c1C#Cc1ccc(N)nc1 [Example C-47] has an IC50 of 541 nM.
With CCc1ncnc(-c2ccc(Cl)c(C(=O)N3CCCCC3)c2)c1C#Cc1ccc(N)nc1 [Example C-48] the IC50 was 596 nM.
Molecule CCc1ncnc(-c2ccc(Cl)c(C(=O)NC)c2)c1C#Cc1ccc(N)nc1 [Example C-49] has an IC50 of 67 nM.
In the case of CCc1ncnc(-c2cccc(C(=O)NC)c2)c1C#Cc1ccc(N)nc1 [Example C-50], the IC50 is reported as 72 nM.
CCc1ncnc(-c2ccc(C(=O)N(C)CCCOC)c(F)c2)c1C#Cc1ccc(N)nc1 [Example D-1] showed an IC50 of 78 nM.
Work on CCc1ncnc(-c2ccc(C(=O)N(C)C3CCN(C)CC3)c(F)c2)c1C#Cc1ccc(N)nc1 [Example D-3] yielded an IC50 of 574 nM.
Work on CCc1ncnc(-c2ccc(C(=O)N(C)CCCO)c(F)c2)c1C#Cc1ccc(N)nc1 [Example D-4] yielded an IC50 of 58 nM.
Molecule CCc1ncnc(-c2ccc(C(=O)NC)c(F)c2)c1C#Cc1ccc(N)nc1 [Example D-5] has an IC50 of 225 nM.
Work on CCc1ncnc(-c2ccc(C(=O)N(C)CCOC)c(F)c2)c1C#Cc1ccc(N)nc1 [Example D-7] yielded an IC50 of 103 nM.
In the case of CCc1ncnc(-c2ccc(C(=O)N3CCN(C)CC3)c(F)c2)c1C#Cc1ccc(N)nc1 [Example D-8], the IC50 is reported as 215 nM.
CCc1ncnc(-c2ccc(C(=O)N(C)CCCN(C)C)c(F)c2)c1C#Cc1ccc(N)nc1 [Example D-9] gave an IC50 of 591 nM.
CCc1ncnc(-c2ccc(C(=O)N3CCCCC3)c(F)c2)c1C#Cc1ccc(N)nc1C [Example D-10] was tested, and the IC50 was 206 nM.
CCc1ncnc(-c2ccc(C(=O)N3CCN(CC(F)F)CC3)c(F)c2)c1C#Cc1ccc(N)nc1C [Example D-12] gave an IC50 of 163 nM.
CCc1ncnc(-c2ccc(C(=O)N3CCN(C4CC4)CC3)c(F)c2)c1C#Cc1ccc(N)nc1C [Example D-13] gave an IC50 of 312 nM.
Work on CCc1ncnc(-c2ccc(C(=O)N3CCC(C(F)(F)F)CC3)c(F)c2)c1C#Cc1ccc(N)nc1C [Example D-14] yielded an IC50 of 647 nM.
For CCc1ncnc(-c2ccc(C(=O)N3CCN(CC4CCCO4)CC3)c(F)c2)c1C#Cc1ccc(N)nc1C [Example D-16], the IC50 was 192 nM.
CCc1ncnc(-c2ccc(C(=O)N3CCN(C4CCS(=O)(=O)C4)CC3)c(F)c2)c1C#Cc1ccc(N)nc1C [Example D-17] showed an IC50 of 178 nM.
CCc1ncnc(-c2ccc(C(=O)N3CCN4CCCCC4C3)c(F)c2)c1C#Cc1ccc(N)nc1C [Example D-18] showed an IC50 of 481 nM.
For CCc1ncnc(-c2ccc(C(=O)N3CCN(S(=O)(=O)CC)CC3)c(F)c2)c1C#Cc1ccc(N)nc1C [Example D-19], the IC50 was 92 nM.
In the case of CCc1ncnc(-c2ccc(C(=O)N3CCOCC3)c(F)c2)c1C#Cc1ccc(N)nc1C [Example D-20], the IC50 is reported as 116 nM.
In the case of CCc1ncnc(-c2ccc(C(=O)N3CCN(C)CC3)c(F)c2)c1C#Cc1ccc(N)nc1C [Example D-21], the IC50 is reported as 270 nM.
Molecule CCc1ncnc(-c2ccc(C(=O)N3CCN(CC4CCCCC4)CC3)c(F)c2)c1C#Cc1ccc(N)nc1C [Example D-22] has an IC50 of 1270 nM.
For CCc1ncnc(-c2ccc(C(=O)N3CCN(CC(=O)N(C)C)CC3)c(F)c2)c1C#Cc1ccc(N)nc1C [Example D-23], the IC50 was 123 nM.
CCc1ncnc(-c2ccc(C(=O)N3CCN(Cc4ccccc4)CC3)c(F)c2)c1C#Cc1ccc(N)nc1C [Example D-24] showed an IC50 of 1020 nM.
Work on CCc1ncnc(-c2ccc(C(=O)N3CCN(c4ccccc4)CC3)c(F)c2)c1C#Cc1ccc(N)nc1C [Example D-25] yielded an IC50 of 498 nM.
CCc1ncnc(-c2ccc(C(=O)N3CCN(CCN(C)C)CC3)c(F)c2)c1C#Cc1ccc(N)nc1C [Example D-26] gave an IC50 of 552 nM.
CCCCN1CCN(C(=O)c2ccc(-c3ncnc(CC)c3C#Cc3ccc(N)nc3)cc2Cl)CC1 [Example D-29] gave an IC50 of 162 nM.
CCc1ncnc(-c2ccc(C(=O)N(C)CCCOC)c(Cl)c2)c1C#Cc1ccc(N)nc1 [Example D-30] showed an IC50 of 68 nM.
Molecule CCc1ncnc(-c2ccc(C(=O)N3CCN(C4CCOCC4)CC3)c(Cl)c2)c1C#Cc1ccc(N)nc1 [Example D-31] has an IC50 of 97 nM.
CCc1ncnc(-c2ccc(C(=O)N3CCN(C4CCS(=O)(=O)C4)CC3)c(Cl)c2)c1C#Cc1ccc(N)nc1 [Example D-32] showed an IC50 of 121 nM.
In the case of CCc1ncnc(-c2ccc(C(=O)NCCOC)c(Cl)c2)c1C#Cc1ccc(N)nc1 [Example D-33], the IC50 is reported as 181 nM.
With CCc1ncnc(-c2ccc(C(=O)N(C)CCO)c(Cl)c2)c1C#Cc1ccc(N)nc1 [Example D-34] the IC50 was 36 nM.
CCc1ncnc(-c2ccc(C(=O)N(C)CCOC)c(Cl)c2)c1C#Cc1ccc(N)nc1 [Example D-35] gave an IC50 of 63 nM.
Molecule CCc1ncnc(-c2ccc(C(=O)N3CCN(CCO)CC3)c(Cl)c2)c1C#Cc1ccc(N)nc1 [Example D-36] has an IC50 of 84 nM.
For CCc1ncnc(-c2ccc(C(=O)N3CCN(c4ccccn4)CC3)c(Cl)c2)c1C#Cc1ccc(N)nc1 [Example D-37], the IC50 was 118 nM.
CCc1ncnc(-c2ccc(C(=O)N3CCN(c4ccccc4)CC3)c(Cl)c2)c1C#Cc1ccc(N)nc1 [Example D-39] gave an IC50 of 89 nM.
CCc1ncnc(-c2ccc(C(=O)N3CCN(CC(F)F)CC3)c(Cl)c2)c1C#Cc1ccc(N)nc1 [Example D-41] was tested, and the IC50 was 177 nM.
Molecule CCc1ncnc(-c2ccc(C(=O)N3CCN(C(C)(C)C)CC3)c(Cl)c2)c1C#Cc1ccc(N)nc1 [Example D-43] has an IC50 of 436 nM.
CCc1ncnc(-c2ccc(C(=O)N3CCNC(=O)C3)c(Cl)c2)c1C#Cc1ccc(N)nc1 [Example D-44] showed an IC50 of 27 nM.
Work on CCc1ncnc(-c2ccc(C(=O)N3CCN(CC)CC3)c(Cl)c2)c1C#Cc1ccc(N)nc1 [Example D-45] yielded an IC50 of 186 nM.
Work on CCc1ncnc(-c2ccc(C(=O)N3CCN(C(C)=O)CC3)c(Cl)c2)c1C#Cc1ccc(N)nc1 [Example D-46] yielded an IC50 of 97 nM.
CCc1ncnc(-c2ccc(C(=O)N3CCN(CC(F)F)CC3)c(OC)c2)c1C#Cc1ccc(N)nc1 [Example D-47] showed an IC50 of 63 nM.
